Patent US9315510B2, “Method and application of unsymmetrically meso-substituted porphyrins and chlorins for PDT” (Biolitec Pharma Marketing LTD, priority 2008, dated 2016)

How the values were obtained:
[1] = test system: human colon adenocarcinoma cell line HT29; test: Cell tests in the HT 29 cell line: photosensitizing activity, XTT cell viability; format: cell-based
Description: The photosensitizing activity was determined in the human colon adenocarcinoma cell line HT29. The HT29 cell lines were grown in DMEM (cc-pro GmbH) supplemented with 10% heat-inactivated fetal calf serum (FCS, cc-pro GmbH), 1% penicillin (10000 IU) and streptomycin (10000 μg/ml, cc-pro GmbH). Cells were kept as a monolayer culture in a humidified incubator (5% CO2 in air at 37° C.
(§1) A photosensitizer stock solution (2 mM) was performed in DMSO and was kept in the dark at 4° C. Further dilution was performed in RPMI 1640 medium without phenol red supplemented with 10% FCS to reach a final photosensitizer concentration of 2 or 10 μM, respectively.
(§2) 2·10^4 cells/ml were seeded in micro plates (2·10^5 cells/well). Cells were incubated with fresh medium (RPMI without phenol red) containing 10% FCS with 2 or 10 μM of the photosensitizer for 24 h before light exposure. […]
(§3) The cell viability was assessed by the XTT assay. […]
(§4) The absorbance of the samples was measured with a spectrophotometer (Bio-Kinetics Reader EL312 e; Bio-Tek Instruments Inc.) at a wavelength of 490 nm. In order to measure reference absorbance (to measure non-specific readings) a wavelength of 630-690 nm was used.

[2] = test system: rabbit synoviocyte cell line HIG-82; test: Cell tests in the rabbit synoviocyte cell line HIG-82: photodynamic activity, XTT cell viability; format: cell-based; settings: HIG82, 2 or 10 μM photosensitizer, 24 h incubation, 652 nm diode laser, 50 J/cm^2
Description: (§5) The mouse monocytes-macrophages cell line J774A.1 and the rabbit synoviocyte cell line HIG-82 were grown in DMEM (cc-pro GmbH) supplemented with 10% heat-inactivated fetal calf serum (FCS, cc-pro GmbH), 1% penicillin (10000 IU) and streptomycin (10 000 μg/ml, cc-pro GmbH). Cells were kept as a monolayer culture in a humidified incubator (5% CO2 in air at 37° C.).
as §1, §2, §3, §4

[3] = test system: mouse monocytes-macrophages cell line J774A.1; test: Cell tests in the mouse macrophage cell line J774A.1: photodynamic activity, XTT cell viability; format: cell-based; settings: 2 or 10 μM photosensitizer, 24 h incubation, 652 nm diode laser, 50 J/cm^2
Description: as §5, §1, §2, §3, §4

Molecule | photodynamic activity [2] | photodynamic activity [3] | melting point | also measured
5,15-Bis-(4-carboxyphenyl)-10,20-dihexyl-7,8-dihydroxy-7,8-chlorin | very strong photodynamic activity | very strong photodynamic activity | – | photodynamic activity (photo toxicity) ([1]; HT29, 2 or 10 μM photosensitizer, 24 h incubation, 652 nm diode laser, 100 mW/cm^2 (50 J/cm^2), XTT 24 h after irradiation): very strong photodynamic activity; dark toxicity (DT) and photo toxicity ([1]; HT 29 cell line, cell culture experiments (FIG. 4A)): excellent properties
CCCCCCCCCCCCCc1c2nc(c(CCCCCCCCCCCCC)c3ccc([nH]3)c(-c3cccc(O)c3)c3nc(c(-c4cccc(O)c4)c4ccc1[nH]4)C=C3)C=C2 [5,10-Bis-(3-hydroxyphenyl)-15,20-bis-(tridecyl)-porphyrin] | – | – | 113 °C | –
CCCCCCc1c2nc(c(CCCCCC)c3ccc([nH]3)c(-c3ccc(C(=O)OC)cc3)c3nc(c(-c4ccc(C(=O)OC)cc4)c4ccc1[nH]4)C=C3)C=C2 [5,10-Dihexyl-15,20-bis-(4-methoxycarbonylphenyl)-porphyrin] | – | – | 131 °C | –
CCCCCCCCCCCCCc1c2nc(c(-c3cccc(O)c3)c3ccc([nH]3)c(CCCCCCCCCCCCC)c3nc(c(-c4cccc(O)c4)c4ccc1[nH]4)C=C3)C=C2 [5,15-Bis-(3-hydroxyphenyl)-10,20-bis-(tridecyl)-porphyrin] | – | – | 133 °C | –
CCCCCCc1c2nc(c(-c3ccc(C(=O)OC)cc3)c3ccc([nH]3)c(CCCCCC)c3nc(c(-c4ccc(C(=O)OC)cc4)c4ccc1[nH]4)C=C3)C=C2 [5,15-Dihexyl-10,20-bis-(4-methoxycarbonylphenyl)-porphyrin] | – | – | 238 °C | –
CCCCCCc1c2nc(c(-c3ccc(C(=O)O)cc3)c3ccc([nH]3)c(-c3ccc(C(=O)O)cc3)c3nc(c(CCCCCC)c4ccc1[nH]4)C(O)C3O)C=C2 (stereo not shown) [5,20-Bis-(4-carboxyphenyl)-10,15-dihexyl-7,8-dihydroxy-7,8-chlorin] | very strong photodynamic activity | very strong photodynamic activity | – | –
